Measurements taken from PubChem BioAssay AID2060613 (Molecular Pharmacology Branch, DTP, NCI, 2025).

Tested on: 233499-124-R-J3-PDC complex spheroid viability
Test: Anticancer human tumor 233499-124-R-J3-PDC patient-derived colon adenocarcinoma cell line growth inhibition [CLK]
Conditions: for IC50: curve of first compound; for viability, T/C: stronger effect = lower value
Procedure, shortened: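 Patient-derived tumor cells grown as complex spheroids with HUVEC endothelial cells and mesenchymal stem cells, treated with drug combinations. Concentrations descend in half-log steps from near clinical Cmax, or from 10 microM if Cmax unknown.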

[1] = second compound 0.0316 µM, first compound 0.0316 µM
[2] = second compound 0.0316 µM, first compound 0.1 µM
[3] = second compound 0.0316 µM, first compound 0.316 µM
[4] = second compound 0.0316 µM, first compound 1 µM
[5] = second compound 0.0316 µM, first compound 3.16 µM
[6] = second compound 0.0316 µM, first compound 10 µM
[7] = second compound 0.1 µM, first compound 0.0316 µM
[8] = second compound 0.1 µM, first compound 0.1 µM
[9] = second compound 0.1 µM, first compound 0.316 µM
[10] = second compound 0.1 µM, first compound 1 µM
[11] = second compound 0.1 µM, first compound 3.16 µM
[12] = second compound 0.1 µM, first compound 10 µM
[13] = second compound 0.316 µM, first compound 0.0316 µM
[14] = second compound 0.316 µM, first compound 0.1 µM
[15] = second compound 0.316 µM, first compound 0.316 µM
[16] = second compound 0.316 µM, first compound 1 µM
[17] = second compound 0.316 µM, first compound 3.16 µM
[18] = second compound 0.316 µM, first compound 10 µM
[19] = second compound 1 µM, first compound 0.0316 µM
[20] = second compound 1 µM, first compound 0.1 µM
[21] = second compound 1 µM, first compound 0.316 µM
[22] = second compound 1 µM, first compound 1 µM
[23] = second compound 1 µM, first compound 3.16 µM
[24] = second compound 1 µM, first compound 10 µM
[25] = second compound 3.16 µM, first compound 0.0316 µM
[26] = second compound 3.16 µM, first compound 0.1 µM
[27] = second compound 3.16 µM, first compound 0.316 µM
[28] = second compound 3.16 µM, first compound 1 µM
[29] = second compound 3.16 µM, first compound 3.16 µM
[30] = second compound 3.16 µM, first compound 10 µM
[31] = second compound 10 µM, first compound 0.0316 µM
[32] = second compound 10 µM, first compound 0.1 µM
[33] = second compound 10 µM, first compound 0.316 µM
[34] = second compound 10 µM, first compound 1 µM
[35] = second compound 10 µM, first compound 3.16 µM
[36] = second compound 10 µM, first compound 10 µM
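Also: spheroids exposed to the drug combinations for seven days.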
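For viability, T/C in this document: percent viability relative to DMSO vehicle control wells taken as 100%.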

With `C=CC(=O)N1CCN(c2nc(=O)n(-c3c(C)ccnc3C(C)C)c3nc(-c4c(O)cccc4F)c(F)cc23)C(C)C1` (centres undefined) + CNC(=O)c1ccc(Nc2nc(OC3CCCC3)c3c(-c4ccc5nc(C)oc5c4)c[nH]c3n2)c(OC)c1 the IC50 (second compound 0.0316 µM) was over 10 µM, the IC50 (second compound 0.1 µM) was over 10 µM and the IC50 (second compound 0.316 µM) was over 10 µM. For the same compound, the IC50 (second compound 1 µM) was over 10 µM, the IC50 (second compound 3.16 µM) was over 10 µM and the IC50 (second compound 10 µM) was over 10 µM. The viability, T/C [1] was 84.8%, the viability, T/C [2] was 86.5% and the viability, T/C [3] was 94.4%. For the same compound, the viability, T/C [4] was 93.6%, the viability, T/C [5] was 96.3% and the viability, T/C [6] was 98.3%. The viability, T/C [7] was 79.6%, the viability, T/C [8] was 71.6% and the viability, T/C [9] was 72.6%. The viability, T/C [10] was 79.7%, the viability, T/C [11] was 85.2% and the viability, T/C [12] was 77.5%. For the same compound, the viability, T/C [13] was 75.9%, the viability, T/C [14] was 76.4% and the viability, T/C [15] was 75.8%. It also gave a viability, T/C [16] of 75.4%, a viability, T/C [17] of 80.5% and a viability, T/C [18] of 82.8%. It also gave a viability, T/C [19] of 81.2%, a viability, T/C [20] of 73.7% and a viability, T/C [21] of 74.3%. It also gave a viability, T/C [22] of 87.5%, a viability, T/C [23] of 90% and a viability, T/C [24] of 86.4%. For the same compound, the viability, T/C [25] was 68.5%, the viability, T/C [26] was 71.3% and the viability, T/C [27] was 65.7%. The viability, T/C [28] was 86.7%, the viability, T/C [29] was 80.5% and the viability, T/C [30] was 76.7%. For the same compound, the viability, T/C [31] was 71.2%, the viability, T/C [32] was 78.4% and the viability, T/C [33] was 69.6%. The viability, T/C [34] was 74.8%, the viability, T/C [35] was 81% and the viability, T/C [36] was 91.2%.
Work on `CC(CO)NC(=O)c1cc(-c2ccc(Cl)cc2)nn(-c2cnn(C)c2)c1=O` (centres undefined) + CNC(=O)c1ccc(Nc2nc(OC3CCCC3)c3c(-c4ccc5nc(C)oc5c4)c[nH]c3n2)c(OC)c1 yielded an IC50 (second compound 0.0316 µM) of over 10 µM, an IC50 (second compound 0.1 µM) of over 10 µM and an IC50 (second compound 0.316 µM) of over 10 µM. The IC50 (second compound 1 µM) was over 10 µM, the IC50 (second compound 3.16 µM) was over 10 µM and the IC50 (second compound 10 µM) was over 10 µM. It also gave a viability, T/C [1] of 94.6%, a viability, T/C [2] of 98.2% and a viability, T/C [3] of 90.1%. For the same compound, the viability, T/C [4] was 94.6%, the viability, T/C [5] was 94% and the viability, T/C [6] was 88.9%. For the same compound, the viability, T/C [7] was 83.5%, the viability, T/C [8] was 84.7% and the viability, T/C [9] was 71.9%. For the same compound, the viability, T/C [10] was 80.6%, the viability, T/C [11] was 87.8% and the viability, T/C [12] was 61.9%. For the same compound, the viability, T/C [13] was 91.4%, the viability, T/C [14] was 64.6% and the viability, T/C [15] was 88.5%. The viability, T/C [16] was 83.9%, the viability, T/C [17] was 83.5% and the viability, T/C [18] was 66.6%. The viability, T/C [19] was 84.3%, the viability, T/C [20] was 85% and the viability, T/C [21] was 86.5%. For the same compound, the viability, T/C [22] was 86.7%, the viability, T/C [23] was 81.9% and the viability, T/C [24] was 79.2%. It also gave a viability, T/C [25] of 84.6%, a viability, T/C [26] of 59.3% and a viability, T/C [27] of 62.4%. For the same compound, the viability, T/C [28] was 83.3%, the viability, T/C [29] was 83.7% and the viability, T/C [30] was 70.8%. It also gave a viability, T/C [31] of 68.6%, a viability, T/C [32] of 73.9% and a viability, T/C [33] of 69.8%. For the same compound, the viability, T/C [34] was 72.2%, the viability, T/C [35] was 69.7% and the viability, T/C [36] was 64.2%.
